Source: patent US20070105875A1, “Fungicidal mixtures” (priority 2004, published 2007)

Test system: Corticium sasakii (syn. Rhizoctonia solani)
Test: Activity against sheath blight on rice caused by Corticium sasakii (protective spray test on potted rice plants)
Format: in vivo
Conditions: individual active compound, rice cultivar Tai-Nong 67, evaluation after 11 days, untreated control 90% infection
Experimental: The active compounds, separately or jointly, were prepared as a stock solution with 0.25% by weight of active compound in acetone or DMSO. 1% by weight of the emulsifier Uniperol® EL (wetting agent having emulsifying and dispersing action based on ethoxylated alkylphenols) was added to this solution, and the solution was diluted with water to the desired concentration.
Activity Against Sheath Blight on Rice Caused by Corticium sasakii (syn. Rhizoctonia solani)
Pots of rice plants of the cultivar “Tai-Nong 67” were sprayed to runoff point with an aqeuous suspension having the concentration of active compound stated below. The next day, oat grains infected with Corticium sasakii were placed into the pots (in each case 5 grains per pot). The plants were then placed in a chamber at 26° C. and maximum atmospheric humidity. After 11 days, the sheath blight on the untreated but infected control plants had developed to such an extent that the infection could be determined visually in %.
Evaluation is carried out by determining the infected leaf areas in percent. These percentages were converted into efficacies.
The efficacy (E) is calculated as follows using Abbot's formula: E=(1−α/β)·100 α corresponds to the fungicidal infection of the treated plants in % and β corresponds to the fungicidal infection of the untreated (control) plants in %
An efficacy of 0 means that the infection level of the treated plants corresponds to that of the untreated control plants; an efficacy of 100 means that the treated plants are not infected.
The expected efficacies of the mixtures of active compounds are determined using Colby's formula [R. S. Colby, Weeds 15, 20-22 (1967)] and compared with the observed efficacies.
Colby's Formula: E=x+y−x·y/100 • E expected efficacy, expressed in % of the untreated control, when using the mixture of the active compounds A and B at the concentrations a and b • x efficacy, expressed in % of the untreated control, when using active compound A at the concentration a • y efficacy, expressed in % of the untreated control, when using active compound B at the concentration b

| Structure (SMILES) | Efficacy in % of the untreated control (1 ppm in the spray liquor) [%] | Efficacy in % of the untreated control (4 ppm in the spray liquor) [%] |
| --- | --- | --- |
| CO/N=C(/C(=O)OC)c1ccccc1COc1ccccc1C [II (kresoxim-methyl), methyl methoxyimino-(2-o-tolyloxymethylphenyl)acetate] | 0 | 0 |
| CC1CCN(c2c(-c3c(F)cc(F)cc3F)c(Cl)nc3ncnn23)CC1 [I, 5-chloro-7-(4-methylpiperidin-1-yl)-6-(2,4,6-trifluorophenyl)-[1,2,4]triazolo[1,5-a]pyrimidine] | 33 | – |
| CC1CCN(c2c(-c3c(F)cccc3Cl)c(Cl)nc3ncnn23)CC1 [A] | 0 | – |
| C[C@H](Nc1c(-c2c(F)cc(F)cc2F)c(Cl)nc2ncnn12)C(F)(F)F [B] | 0 | – |
